Earlier results on four compounds are cited in US6989139B2, “Matrix metalloproteinase inhibitors” (Bristol-Myers Squibb Pharma Company, priority 2000, dated 2006).

In one data set the test system is MMP's. Conditions: literature statement.
The test system of data set [1] is MMP-2, MMP-9 vs MMP-1, MMP-3. The settings on record: Lovejoy et al 1999.

Take “2-[2-({5-[N-(5-(N-hydroxycarbamoyl)(5R)-5-{3-[4-(3,4-dimethoxyphenoxy)phenyl]-3-methyl-2-oxopyrrolidinyl}pentyl)carbamoyl](2-pyridyl)}amino)(1Z)-2-azavinyl]benzenesulfonic Acid [Example 15]”: the MMP inhibitory activity entry with MMP's was “good activity”.
As to “2-[(2-{[(N-{[4-({[7-(N-hydroxycarbamoyl)(3S,6R,7S)-4-aza-6-(2-methylpropyl)-11-oxa-5-oxobicyclo[10.2.2)hexadeca-1(15),12(16),13-trien-3-yl]-carbonylamino}methyl)phenyl]methyl}carbamoyl)methyl](carboxymeth yl)amino}ethyl){2-[bis(carboxymethyl)amino]ethyl}amino]acetic Acid [Example 8]”, in the data set on MMP's, the MMP inhibitory activity entry is given as “potent inhibition”.
As to `CC(C)C[C@H]1C(=O)N[C@H](C(=O)NCc2ccc(CNC(=O)C(CS(=O)(=O)O)NC(=O)CN3CCN(CC(=O)O)CCN(CC(=O)O)CCN(CC(=O)O)CC3)cc2)Cc2ccc(cc2)OCCC[C@@H]1C(=O)NO` (stereo partly drawn) [Example 6, 2-[7-({N-[1-(N-{[4-({[7-(N-hydroxycarbamoyl)(3S,6R,7S)-4-aza-6-(2-methylpropyl)-11-oxa-5-oxobicyclo[10.2.2]hexadeca-1(15),12(16),13-trien-3-yl]-carbonylamino}methyl)phenyl]methyl}carbamoyl)-2-sulfoethyl]carbamoyl}methyl)-1,4,7,10-tetraaza-4,10-bis(carboxymethyl)cyclododecyl]acetic Acid], the MMP inhibitory activity result in the data set with MMP's is reported as “nanomolar activity”.
In the case of `O=C(NO)C1(CS(=O)(=O)c2ccc(Oc3ccc(Cl)cc3)cc2)CCOCC1` [Example 13], the “selectivity for MMP-2 and MMP-9 over MMP-1” value in data set [1] is “selectivity for MMP-2 and MMP-9 over MMP-1”.
